# Assay results reported in ChEMBL document CHEMBL5385929, “Tabersonine Enhances Olaparib Sensitivity through FHL1-Mediated Epithelial-Mesenchymal Transition in an Ovarian Tumor” (J Nat Prod, 2024).
# Active and inactive are the calls of the source. The calls are words filed in the database; no cut-off is given here.
# Legend:
# A2780 [1] = assay: Antitumor activity against human A2780 cells xenografted in BALB/c mouse assessed as decrease in tumor weight at 5 to 15 mg/kg, ip administered every other day for 2 weeks; format: functional, organism-based; details: dose 5-15 mg/kg
# [2] = Toxicity in BALB/c mouse xenografted with human A2780 cells assessed as decrease in body weight at 30 mg/kg, ip administered every other day and measured on day 6; format: organism-based; details: in vivo, 144 h, time 6 day
# A2780 [3] = assay: Potentiation of olaparib sensitivity in human A2780 cells assessed as downregulation of EMT signaling by measuring downregulation of vimentin protein expression at 10 uM in presence of olaparib by western blot analysis; format: functional, cell-based
# SK-OV-3 = assay: Downregulation of EMT signalling in human SK-OV-3 cells assessed as downregulation of N-cadherin protein expression at 10 uM by western blot analysis; format: functional, cell-based
structure (smiles),measurement,setting,value
CC[C@]12C=CCN3CC[C@]4(C(=C(C(=O)OC)C1)Nc1ccccc14)[C@@H]32 [TABERSONINE],Activity,A2780 [1],Active
same,Activity,[2],Toxic
same,Activity,A2780 [3],Active
same,inhibition,SK-OV-3,Active
